Laboratory results taken from patent US9540343B2 (Gilead Sciences, Inc., priority 2011, dated 2017).

Tests used:
[1] = test system: HIV-IIIb; test: Test A: Antiviral assay in MT4 cells; assay type: cell-based, HIV-1; details: Human immunodeficiency virus 1, IIIB, MT4, 120 h, read-out: % inhibition at 2 μM, percent inhibition of virus-induced cell killing, from dose response curve at 2 uM drug; MT-4 cells infected with HIV-IIIb, 5 days, CellTiter-Glo
[2] = in vitro; details: human, uninfected MT-4 cells, CC50 (nM), same protocol as Test A, CellTiter-Glo
Method in brief: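 Cytoprotection read-out: CellTiter-Glo chemiluminescence after 5 days at 37 °C of HIV-IIIb-infected MT-4 cells (m.o.i. 0.003) with compound in 10-point 3-fold dilutions, quadruplicate, 10% FBS. Cytotoxicity (CC50) measured identically without virus.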

Row | SMILES | inhibition at 2 µM [1] [%] | CC50 at 5 days [2] [nM]
1 | CS(=O)(=O)c1ccc(-c2cccnc2[C@H](Cc2cc(F)cc(F)c2)NC(=O)Cc2c[nH]c3ccc(F)cc23)cc1 [Example 413, (S)—N-(2-(3,5-difluorophenyl)-1-(3-(4-(methylsulfonyl)phenyl)pyridin-2-yl)ethyl)-2-(5-fluoro-1H-indol-3-yl)acetamide] | 61 | 14500
2 | NC(=O)c1cc(-c2cccnc2[C@H](Cc2cc(F)cc(F)c2)NC(=O)Cn2nc(C(F)(F)F)c3c2C(=O)CCC3(F)F)ccc1F [Example 414] | 39 | 23400
3 | O=C(Cn1nc(C(F)F)c2c1C(F)(F)C1CC21)N[C@@H](Cc1cc(F)cc(F)c1)c1ncccc1-c1ccc2nccnc2c1 (stereo partly drawn) [Example 415, (S)—N-(1-(3-(quinoxalin-6-yl)-pyridin-2-yl)-2-(3,5-difluorophenyl)ethyl)-2-(3-(difluoromethyl)-5,6-dihydro-4,5-(methano)-6,6-difluoro-cyclopenta[c]pyrazol-1(4H)-yl)acetamide] | 39 | 38000
4 | O=C(Cc1c[nH]c2ccc(F)cc12)N[C@@H](Cc1cc(F)cc(F)c1)c1ncccc1-c1ccc(-c2ccccc2)cc1 [Example 416, (S)—N-(1-(3-(biphenyl-4-yl)pyridin-2-yl)-2-(3,5-difluorophenyl)ethyl)-2-(5-fluoro-1H-indol-3-yl)acetamide] | 0 | 10300
5 | CC(C)(C)NC(=O)c1cc(-c2cccnc2[C@H](Cc2cc(F)cc(F)c2)NC(=O)Cc2c[nH]c3ccc(F)cc23)ccc1F [Example 417, (S)—N-tert-butyl-5-(2-(2-(3,5-difluorophenyl)-1-(2-(5-fluoro-1H-indol-3-yl)acetamido)ethyl)pyridin-3-yl)-2-fluorobenzamide] | 8 | 12800
6 | NC(=O)c1cccc(-c2cccnc2[C@H](Cc2cc(F)cc(F)c2)NC(=O)Cn2cnc3ccccc32)c1 [Example 418, (S)-3-(2-(1-(2-(1H-benzo[d]imidazol-1-yl)acetamido)-2-(3,5-difluorophenyl)ethyl)pyridin-3-yl)benzamide] | 19 | > 53200
7 | Cc1cc(-c2cccnc2[C@H](Cc2cc(F)cc(F)c2)NC(=O)Cc2c[nH]c3ccc(F)cc23)cnc1F [Example 419] | 42 | 27100
8 | O=C(Cn1nc(C(F)F)c2c1C(F)(F)C1CC21)N[C@@H](Cc1cc(F)cc(F)c1)c1ncccc1-c1cccc2ncccc12 (stereo partly drawn) [Example 420, (S)—N-(1-(3-(isoquinole-5-yl)-pyridin-2-yl)-2-(3,5-difluorophenyl)ethyl)-2-(3-(difluoromethyl)-5,6-dihydro-4,5-(methano)-6,6-difluoro-cyclopenta[c]pyrazol-1(4H)-yl)acetamide] | 110 | 18700
9 | O=C(Cn1nc(C(F)F)c2c1C(F)(F)C1CC21)N[C@@H](Cc1cc(F)cc(F)c1)c1ncccc1-c1ccc2[nH]ncc2c1 (stereo partly drawn) [Example 421, (S)—N-(1-(3-(indozol-5-yl)-pyridin-2-yl)-2-(3,5-difluorophenyl)ethyl)-2-(3-(difluoromethyl)-5,6-dihydro-4,5-(methano)-6,6-difluoro-cyclopenta[c]pyrazol-1(4H)-yl)acetamide] | 70 | 10200
10 | O=C(Cc1c[nH]c2ccc(F)cc12)N[C@@H](Cc1cc(F)cc(F)c1)c1ncccc1-c1cc(Cl)cc(Cl)c1 [Example 422] | 0 | 6760
11 | O=C(Cn1nc(C(F)(F)F)c2c1CCCC2)N[C@@H](Cc1cc(F)cc(F)c1)c1ncccc1-c1cccc(C(=O)N2CCOCC2)c1 [Example 424, (S)—N-(2-(3,5-difluorophenyl)-1-(3-(3-(morpholine-4-carbonyl)phenyl)pyridin-2-yl)ethyl)-2-(3-(trifluoromethyl)-4,5,6,7-tetrahydro-1H-indazol-1-yl)acetamide] | 78 | 14200
12 | CS(=O)(=O)c1ccc(-c2cccnc2[C@H](Cc2cc(F)cc(F)c2)NC(=O)Cn2nc(C(F)(F)F)c3c2CCCC3)cc1 [Example 425, (S)—N-(2-(3,5-difluorophenyl)-1-(3-(4-(methylsulfonyl)phenyl)pyridin-2-yl)ethyl)-2-(3-(trifluoromethyl)-4,5,6,7-tetrahydro-1H-indazol-1-yl)acetamide] | 85 | 15600
13 | NS(=O)(=O)c1cccc(-c2cccnc2[C@H](Cc2cc(F)cc(F)c2)NC(=O)Cc2c[nH]c3ccc(F)cc23)c1 [Example 428, (S)—N-(2-(3,5-difluorophenyl)-1-(3-(3-sulfamoylphenyl)pyridin-2-yl)ethyl)-2-(5-fluoro-1H-indol-3-yl)acetamide] | 94 | 23000
14 | O=C(Cc1c[nH]c2ccc(F)cc12)N[C@@H](Cc1cc(F)cc(F)c1)c1ncccc1-c1cnc2[nH]ccc2c1 [Example 430, (S)—N-(1-(3-(1H-pyrrolo[2,3-b]pyridin-5-yl)pyridin-2-yl)-2-(3,5-difluorophenyl)ethyl)-2-(5-fluoro-1H-indol-3-yl)acetamide] | 31 | 26300
15 | O=C(Cc1c[nH]c2ccc(F)cc12)N[C@@H](Cc1cc(F)cc(F)c1)c1ncccc1-c1ccc(OC(F)(F)F)cc1 [Example 431, (S)—N-(2-(3,5-difluorophenyl)-1-(3-(4-(trifluoromethoxy)phenyl)pyridin-2-yl)ethyl)-2-(5-fluoro-1H-indol-3-yl)acetamide] | 7 | 6390
16 | O=C(Cn1nc(C(F)(F)F)c2c1CCCC2)N[C@@H](Cc1cc(F)cc(F)c1)c1ncccc1-c1ccc(N2CCCC2)nc1 [Example 432, (S)—N-(2-(3,5-difluorophenyl)-1-(6′-(pyrrolidin-1-yl)-3,3′-bipyridin-2-yl)ethyl)-2-(3-(trifluoromethyl)-4,5,6,7-tetrahydro-1H-indazol-1-yl)acetamide] | 90 | 7990
17 | CS(=O)(=O)Nc1ccc(-c2cccnc2[C@H](Cc2cc(F)cc(F)c2)NC(=O)Cn2nc(C(F)F)c3c2C(F)(F)C2CC32)cc1 (stereo partly drawn) [Example 433, (S)—N-(1-(3-(4-(methylsulfonamido)phenyl)-pyridin-2-yl)-2-(3,5-difluorophenyl)ethyl)-2-(3-(difluoromethyl)-5,6-dihydro-4,5-(methano)-6,6-difluoro-cyclopenta[c]pyrazol-1(4H)-yl)acetamide] | 16 | 20800
18 | O=C(Cc1c[nH]c2ccc(F)cc12)N[C@@H](Cc1cc(F)cc(F)c1)c1ncccc1-c1ccc(Cl)c(F)c1 [Example 434] | 20 | 12300
19 | COc1ccc2cc(-c3cccnc3[C@H](Cc3cc(F)cc(F)c3)NC(=O)Cc3c[nH]c4ccc(F)cc34)ccc2c1 [Example 435, (S)—N-(2-(3,5-difluorophenyl)-1-(3-(6-methoxynaphthalen-2-yl)pyridin-2-yl)ethyl)-2-(5-fluoro-1H-indol-3-yl)acetamide] | 7 | 13900
20 | O=C(Cn1nc(C(F)F)c2c1C(F)(F)C1CC21)N[C@@H](Cc1cc(F)cc(F)c1)c1ncccc1-c1ccc2cnccc2c1 (stereo partly shown) [Example 436] | 20 | 11300
